The record followed here is US8822517B2, “Arylosulfonamides for the treatment of CNS diseases” (Adamed SP. Z O.O., priority 2010, dated 2014).

The target of assay [1] is T1, serotoninergic 5-HT1A receptor (Homo sapiens, UniProt P08908).
T1 sequence (P08908 1-422): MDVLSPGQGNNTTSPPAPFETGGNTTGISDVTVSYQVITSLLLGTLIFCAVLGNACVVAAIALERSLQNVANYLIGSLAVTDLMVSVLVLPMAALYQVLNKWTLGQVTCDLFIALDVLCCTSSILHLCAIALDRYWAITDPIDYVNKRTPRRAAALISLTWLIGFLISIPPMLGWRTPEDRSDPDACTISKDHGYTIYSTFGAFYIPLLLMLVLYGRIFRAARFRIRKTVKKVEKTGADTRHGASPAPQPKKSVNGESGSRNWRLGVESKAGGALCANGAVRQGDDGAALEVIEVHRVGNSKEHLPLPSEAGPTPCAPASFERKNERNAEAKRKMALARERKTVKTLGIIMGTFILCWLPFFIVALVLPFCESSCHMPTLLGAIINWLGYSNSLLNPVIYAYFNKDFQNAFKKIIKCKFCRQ
Briefly: Binding assay 5-HT1A (h), [3H]8-OH-DPAT, HEK-293 cells. Details: expressed in transfected cells; host or cells: HEK-293 cells. The note with it: read-out: 5-HT1A. Summed up: (§1)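 Compounds tested at a single 1×10^−6 M concentration against the listed radioligands; bound label counted by scintillation, with non-specific binding defined by excess unlabelled ligand and subtracted from total.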

The target in assay [2] is serotoninergic 5-HT6 receptor (Homo sapiens, UniProt P50406). Briefly: Binding assay 5-HT6 (h), [3H]LSD, CHO cells. The arrangement: expressed in transfected cells; host or cells: CHO cells. Particulars: read-out: 5-HT6. An outline of the steps:
as §1

The target of the next assay is dopaminergic D3 receptor (Homo sapiens, UniProt P35462). Briefly: Binding assay D3 (h), [3H]methyl-spiperone, CHO cells. The arrangement: expressed in transfected cells; host or cells: CHO cells. Particulars: read-out: D3 [%]. An outline of the steps: as §1
For another assay, the system named is adrenergic α1 receptor. Briefly: Binding assay α1 (non-selective), [3H]prazosin, rat cerebral cortex. The note with it: percent inhibition of control specific binding; compounds tested at 1×10^−6 M. Summed up: as §1
For assay [3], the target named is serotoninergic 5-HT2A receptor (Homo sapiens, UniProt P28223). Briefly: Binding assay 5-HT2A (h), [3H]ketanserin, HEK-293 cells. Particulars: read-out: 5-HT2A. The arrangement: expressed in transfected cells; host or cells: HEK-293 cells. An outline of the steps:
as §1

The target in assay [4] is T2, serotonine transporter (SERT) receptor (Homo sapiens, UniProt P31645).
T2 construct: expressed in transfected cells; host or cells: CHO cells
Briefly: Binding assay SERT (h), [3H]imipramine, CHO cells. The note with it: read-out: SERT [%]. Summed up:
as §1

The next assay addresses dopaminergic D2 receptor (Homo sapiens, UniProt P14416). Briefly: Binding assay D2S (h), [3H]methyl-spiperone, HEK-293 cells. Details: expressed in transfected cells; host or cells: HEK-293 cells. Particulars: read-out: D2 [%]. An outline of the steps: as §1
The target of assay [5] is serotoninergic 5-HT7 receptor (Homo sapiens, UniProt P34969). Briefly: Binding assay 5-HT7 (h), [3H]LSD, CHO cells. Details: expressed in transfected cells; host or cells: CHO cells. The note with it: read-out: 5-HT7. Summed up: as §1
Sequence of serotoninergic 5-HT7 receptor (P34969 whole entry): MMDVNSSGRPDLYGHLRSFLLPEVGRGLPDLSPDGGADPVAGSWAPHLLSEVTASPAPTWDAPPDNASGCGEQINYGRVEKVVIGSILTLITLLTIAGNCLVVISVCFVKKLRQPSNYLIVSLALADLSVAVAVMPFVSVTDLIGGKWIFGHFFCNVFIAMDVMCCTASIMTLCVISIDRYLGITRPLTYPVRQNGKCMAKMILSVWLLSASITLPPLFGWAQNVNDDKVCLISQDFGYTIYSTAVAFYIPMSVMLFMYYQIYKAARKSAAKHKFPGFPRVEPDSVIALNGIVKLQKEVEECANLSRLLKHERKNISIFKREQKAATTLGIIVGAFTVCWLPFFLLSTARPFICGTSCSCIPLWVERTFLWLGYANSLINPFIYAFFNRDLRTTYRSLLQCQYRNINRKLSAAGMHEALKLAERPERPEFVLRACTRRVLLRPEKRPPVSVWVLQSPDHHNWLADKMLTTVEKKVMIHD

T2 sequence (P31645 whole entry): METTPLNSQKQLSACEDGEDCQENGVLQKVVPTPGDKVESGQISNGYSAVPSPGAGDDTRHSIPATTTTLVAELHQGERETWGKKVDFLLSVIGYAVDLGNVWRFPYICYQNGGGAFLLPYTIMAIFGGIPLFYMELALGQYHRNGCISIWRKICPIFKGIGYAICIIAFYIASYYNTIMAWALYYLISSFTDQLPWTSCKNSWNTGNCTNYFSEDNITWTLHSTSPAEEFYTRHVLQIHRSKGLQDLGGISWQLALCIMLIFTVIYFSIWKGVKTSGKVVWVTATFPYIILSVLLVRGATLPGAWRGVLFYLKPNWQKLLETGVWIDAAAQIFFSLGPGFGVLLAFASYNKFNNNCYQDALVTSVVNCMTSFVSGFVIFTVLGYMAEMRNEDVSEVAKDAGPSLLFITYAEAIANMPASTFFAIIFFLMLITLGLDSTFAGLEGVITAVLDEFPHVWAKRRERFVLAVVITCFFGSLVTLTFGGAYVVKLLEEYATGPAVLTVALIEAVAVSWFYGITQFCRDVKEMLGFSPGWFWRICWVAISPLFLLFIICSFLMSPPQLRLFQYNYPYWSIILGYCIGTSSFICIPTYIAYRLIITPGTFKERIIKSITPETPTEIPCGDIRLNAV
Sequence of serotoninergic 5-HT2A receptor (P28223 whole entry): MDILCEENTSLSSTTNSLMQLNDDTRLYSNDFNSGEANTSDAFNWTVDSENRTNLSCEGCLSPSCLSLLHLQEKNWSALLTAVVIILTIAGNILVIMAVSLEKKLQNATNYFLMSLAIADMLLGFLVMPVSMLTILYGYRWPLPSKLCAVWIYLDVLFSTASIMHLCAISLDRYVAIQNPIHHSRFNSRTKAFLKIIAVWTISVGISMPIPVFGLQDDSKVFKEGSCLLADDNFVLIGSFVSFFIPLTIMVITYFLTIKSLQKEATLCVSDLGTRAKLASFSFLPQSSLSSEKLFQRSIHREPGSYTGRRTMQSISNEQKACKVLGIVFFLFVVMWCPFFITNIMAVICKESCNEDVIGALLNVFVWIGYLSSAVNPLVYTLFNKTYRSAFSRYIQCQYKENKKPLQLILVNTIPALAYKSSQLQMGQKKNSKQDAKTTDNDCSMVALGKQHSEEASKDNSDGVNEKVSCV
Sequence of dopaminergic D3 receptor (P35462 whole entry): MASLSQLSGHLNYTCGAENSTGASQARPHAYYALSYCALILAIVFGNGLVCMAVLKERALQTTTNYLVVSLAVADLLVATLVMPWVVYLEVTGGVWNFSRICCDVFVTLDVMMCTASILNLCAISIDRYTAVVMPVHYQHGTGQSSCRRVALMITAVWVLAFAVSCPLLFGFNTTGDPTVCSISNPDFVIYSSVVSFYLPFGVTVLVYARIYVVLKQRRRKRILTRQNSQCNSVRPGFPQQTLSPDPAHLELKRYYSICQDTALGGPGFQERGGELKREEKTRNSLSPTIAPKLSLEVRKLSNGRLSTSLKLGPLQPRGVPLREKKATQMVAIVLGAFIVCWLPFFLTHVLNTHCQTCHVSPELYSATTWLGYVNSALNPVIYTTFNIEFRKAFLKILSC
Sequence of dopaminergic D2 receptor (P14416 1-414 isoform P14416-2): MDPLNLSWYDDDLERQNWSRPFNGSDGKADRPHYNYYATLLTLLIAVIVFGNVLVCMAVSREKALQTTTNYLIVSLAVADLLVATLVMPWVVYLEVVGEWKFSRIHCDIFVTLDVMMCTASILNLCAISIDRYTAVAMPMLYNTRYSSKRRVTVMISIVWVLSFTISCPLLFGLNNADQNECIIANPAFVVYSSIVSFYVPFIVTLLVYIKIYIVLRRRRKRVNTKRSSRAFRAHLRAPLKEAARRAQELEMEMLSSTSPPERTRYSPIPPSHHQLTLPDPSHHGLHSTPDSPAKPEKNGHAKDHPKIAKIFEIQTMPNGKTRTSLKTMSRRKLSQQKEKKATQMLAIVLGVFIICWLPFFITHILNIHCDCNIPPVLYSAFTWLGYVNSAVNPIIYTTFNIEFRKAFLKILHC
Sequence of serotoninergic 5-HT6 receptor (P50406 whole entry): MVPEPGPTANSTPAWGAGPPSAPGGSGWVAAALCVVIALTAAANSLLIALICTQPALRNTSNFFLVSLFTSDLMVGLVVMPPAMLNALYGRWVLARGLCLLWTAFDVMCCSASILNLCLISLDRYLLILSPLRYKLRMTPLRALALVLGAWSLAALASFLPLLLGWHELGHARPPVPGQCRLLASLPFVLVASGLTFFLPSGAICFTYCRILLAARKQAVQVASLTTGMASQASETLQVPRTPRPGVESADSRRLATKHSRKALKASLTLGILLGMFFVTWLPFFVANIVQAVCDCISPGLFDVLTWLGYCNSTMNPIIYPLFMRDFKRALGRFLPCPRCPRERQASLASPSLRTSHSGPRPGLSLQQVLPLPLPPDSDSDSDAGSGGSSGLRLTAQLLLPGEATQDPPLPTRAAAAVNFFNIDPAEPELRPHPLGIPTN

`O=S(=O)(NCCCCN1CCN(c2nsc3ccccc23)CC1)c1cccc(C(F)(F)F)c1` [Compound 235, N-[4-[4-(1,2-Benzothiazol-3-yl)piperazin-1-yl]butyl]-3-(trifluoromethyl)benzenesulphonamide]: the inhibition at 1 µM came to 86% in assay [1]; 82% in assay [2]; 87% at dopaminergic D3 receptor; 80% in assay [3]; 8% in assay [4]; 103% on dopaminergic D2 receptor. Besides, in assay [5], the inhibition at 1 µM worked out at 93%. Moreover, the “α1 [%]” value in the assay with adrenergic α1 receptor is 95%.
Regarding `O=S(=O)(NCCCCN1CCN(c2nsc3ccccc23)CC1)c1ccc(OC(F)(F)F)cc1` [Compound 236, N-[4-[4-(1,2-Benzothiazol-3-yl)piperazin-1-yl]butyl]-4-(trifluoromethoxy)benzenesulphonamide], the inhibition at 1 µM in assay [1] is 76%; in assay [2] it was 67%; on dopaminergic D3 receptor, 85%; in assay [3], 89%; in assay [4], -15%; on dopaminergic D2 receptor, 99%. For the same compound, the inhibition at 1 µM in assay [5] is 91%. Also, the “α1 [%]” value in the assay with adrenergic α1 receptor is recorded as 92%.
In the case of `O=S(=O)(NCCCCN1CCN(c2nsc3ccccc23)CC1)c1ccc(-c2ccccc2)cc1` [Compound 237, N-[4-[4-(1,2-Benzothiazol-3-yl)piperazin-1-yl]butyl]-4-phenylbenzenesulphonamide], the inhibition at 1 µM was 51% in assay [1]; 89% in assay [2]; 85% on dopaminergic D3 receptor; 24% in assay [3]; -7% in assay [4]; 62% at dopaminergic D2 receptor. Further, the inhibition at 1 µM in assay [5] turned out to be 64%. The “α1 [%]” value in the assay on adrenergic α1 receptor came out at 87%.
Turning to `O=S(=O)(NCCCCN1CCN(c2nsc3ccccc23)CC1)c1cccs1` [Compound 238, N-[4-[4-(1,2-Benzothiazol-3-yl)piperazin-1-yl]butyl]thiophene-2-sulphonamide], the inhibition at 1 µM in assay [1] worked out at 90%; in assay [2], 74%; on dopaminergic D3 receptor, 85%; in assay [3], 95%; in assay [4], 13%; at dopaminergic D2 receptor, 87%. For the same compound, in assay [5], the inhibition at 1 µM came to 88%. For the same compound, in the assay on adrenergic α1 receptor, the “α1 [%]” value is on record as 103%.
`O=S(=O)(NCCCCN1CCN(c2nsc3ccccc23)CC1)c1ccc2c(c1)CCO2` [Compound 242, N-[4-[4-(1,2-Benzothiazol-3-yl)piperazin-1-yl]butyl]-2,3-dihydrobenzofuran-5-sulphonamide]: the inhibition at 1 µM in assay [1] came out at 92%; in assay [2], 73%; at dopaminergic D3 receptor it was 89%; in assay [3] it was 94%; in assay [4], 12%; on dopaminergic D2 receptor, 105%. Also, the inhibition at 1 µM in assay [5] is 101%. Further, the “α1 [%]” value with adrenergic α1 receptor is 98%.
For the compound `O=S(=O)(NCCCCN1CCN(c2nsc3ccccc23)CC1)c1ccc2cn[nH]c2c1` [Compound 244, N-[4-[4-(1,2-Benzothiazol-3-yl)piperazin-1-yl]butyl]-1H-indazole-6-sulphonamide], the inhibition at 1 µM in assay [1] stood at 69%; in assay [2], 81%; on dopaminergic D3 receptor it was 91%; in assay [3], 96%; in assay [4], 19%; at dopaminergic D2 receptor, 105%. Besides, in assay [5], the inhibition at 1 µM is 98%. Moreover, the “α1 [%]” value with adrenergic α1 receptor is 98%.
On to `O=S(=O)(NCCCCN1CCN(c2nsc3ccccc23)CC1)c1cnc2ccccn12` [Compound 246, N-[4-[4-(1,2-Benzothiazol-3-yl)piperazin-1-yl]butyl]imidazo[1,2-a]pyridine-3-sulphonamide], for which the inhibition at 1 µM in assay [1] turned out to be 91%; in assay [2], 49%; on dopaminergic D3 receptor, 86%; in assay [3], 88%; in assay [4], 31%; at dopaminergic D2 receptor, 98%. Further, in assay [5], the inhibition at 1 µM came to 86%. In addition, the “α1 [%]” value in the assay with adrenergic α1 receptor is recorded as 99%.
As for `O=S(=O)(NCCCCN1CCN(c2nsc3ccccc23)CC1)c1c[nH]c2ncccc12` [Compound 247, N-[4-[4-(1,2-Benzothiazol-3-yl)piperazin-1-yl]butyl]-1H-pyrrolo[2,3-b]pyridine-3-sulphonamide], the inhibition at 1 µM worked out at 78% in assay [1]; 93% in assay [2]; 83% at dopaminergic D3 receptor; 88% in assay [3]; 14% in assay [4]; 104% at dopaminergic D2 receptor. In addition, the inhibition at 1 µM in assay [5] is 93%. Moreover, the “α1 [%]” value in the assay on adrenergic α1 receptor turned out to be 98%.
`O=S(=O)(NCCCN1CCN(c2nsc3ccccc23)CC1)c1cccc(O)c1` [Compound 254, N-[3-[4-(1,2-Benzothiazol-3-yl)piperazin-1-yl]propyl]-3-hydroxybenzenesulphonamide]: the inhibition at 1 µM in assay [1] came to 94%; in assay [2], 76%; on dopaminergic D3 receptor, 98%; in assay [3], 90%; in assay [4] it was 9%; at dopaminergic D2 receptor it was 87%. In addition, the inhibition at 1 µM in assay [5] amounted to 93%. Further, the “α1 [%]” value in the assay on adrenergic α1 receptor is given as 96%.
Turning to `COc1cccc(S(=O)(=O)NCCCN2CCN(c3nsc4ccccc34)CC2)c1` [Compound 255, N-[3-[4-(1,2-Benzothiazol-3-yl)piperazin-1-yl]propyl]-3-methoxybenzenesulphonamide], the inhibition at 1 µM turned out to be 93% in assay [1]; 68% in assay [2]; 82% at dopaminergic D3 receptor; 84% in assay [3]; 29% in assay [4]; 98% on dopaminergic D2 receptor. For the same compound, the inhibition at 1 µM in assay [5] is 91%. Besides, the “α1 [%]” value with adrenergic α1 receptor turned out to be 92%.
Regarding `O=S(=O)(NCCCN1CCN(c2nsc3ccccc23)CC1)c1ccc(OC(F)(F)F)cc1` [Compound 259, N-[3-[4-(1,2-Benzothiazol-3-yl)piperazin-1-yl]propyl]-4-(trifluoromethoxy)benzenesulphonamide], the inhibition at 1 µM stood at 97% in assay [1]; 74% in assay [2]; 85% at dopaminergic D3 receptor; 56% in assay [3]; 16% in assay [4]; 93% at dopaminergic D2 receptor. The inhibition at 1 µM in assay [5] came to 96%. The “α1 [%]” value in the assay on adrenergic α1 receptor worked out at 88%.
Take `O=S(=O)(NCCCN1CCN(c2nsc3ccccc23)CC1)c1cc2ccc(Cl)cc2s1` [Compound 264, N-[3-[4-(1,2-Benzothiazol-3-yl)piperazin-1-yl]propyl]-6-chlorobenzothiophene-2-sulphonamide]: the inhibition at 1 µM was 54% in assay [1]; 63% in assay [2]; 65% on dopaminergic D3 receptor; 105% in assay [3]; -18% in assay [4]; 87% on dopaminergic D2 receptor. In addition, the inhibition at 1 µM in assay [5] was determined as 75%. In addition, the “α1 [%]” value in the assay with adrenergic α1 receptor was 53%.
`O=S(=O)(NCCCN1CCN(c2nsc3ccccc23)CC1)c1c[nH]c2ncccc12` [Compound 270, N-[3-[4-(1,2-Benzothiazol-3-yl)piperazin-1-yl]propyl]-1H-pyrrolo[2,3-b]pyridine-3-sulphonamide]: the inhibition at 1 µM amounted to 75% in assay [1]; 70% in assay [2]; 82% on dopaminergic D3 receptor; 89% in assay [3]; 12% in assay [4]; 74% on dopaminergic D2 receptor. In assay [5], the inhibition at 1 µM was 82%. In addition, the “α1 [%]” value in the assay with adrenergic α1 receptor is listed as 88%.
For `O=S(=O)(NCCCCN1CCN(c2noc3ccccc23)CC1)c1ccc(Cl)cc1` [Compound 273, N-[4-[4-(1,2-Benzoxazol-3-yl)piperazin-1-yl]butyl]-4-chlorobenzenesulphonamide], the inhibition at 1 µM in assay [1] came to 46%; in assay [2], 74%; on dopaminergic D3 receptor it was 85%; in assay [3], 95%; in assay [4] it was 22%; on dopaminergic D2 receptor, 88%. Further, the inhibition at 1 µM in assay [5] turned out to be 97%. In addition, in the assay on adrenergic α1 receptor, the “α1 [%]” value was found to be 101%.
